What all share (format): cell-based
In assay [1] the test system is Aspergillus niger ATCC 6275. As to the kind of experiment: Agar incorporation test CG128e (Example 11). The conditions noted are these: 28° C. for 3 days. On the procedure: (§1) [table] 0.3 ml of each dilution step is mixed with 15 ml of nutrient medium while the latter is still liquid. After the nutrient medium has solidified, 10 μl of each of the following organism dilutions of the test strains in 0.85% NaCl solution are spotted onto the agar medium: [table] The plates are incubated at 37° C. for 24 hours (A. niger at 28° C. for 3 days) and then the highest dilution (lowest concentration) of the test substance at which growth is just no longer discernible (corresponds to the MIC) is determined.

In assay [2] the test system is C. minutissimum ATCC 23348. The experiment in a line: Agar incorporation test CG128e (Example 11). As to conditions: 24 hours at 37° C. As to the method:
as §1

For assay [3], the system named is Candida albicans ATCC 10231. As to the kind of experiment: Agar incorporation test CG128e (Example 11). The conditions noted are these: 24 hours at 37° C. As to the method:
as §1

The subject of assay [4] is Corynebacterium xerosis* ATCC 373. The experiment in a line: Agar incorporation test CG128e (Example 11). As to conditions: 24 hours at 37° C.; organism marked *. On the procedure:
as §1

Assay [5] has as its system Escherichia coli ATCC 10536. The experiment in a line: Agar incorporation test CG128e (Example 11). As to conditions: 24 hours at 37° C. On the procedure:
as §1

The test system of assay [6] is Escherichia coli NCTC 8196. As to the kind of experiment: Agar incorporation test CG128e (Example 11). As to conditions: 24 hours at 37° C. On the procedure: as §1
For assay [7], the system named is Klebsiella pneumoniae ATCC 4352. The experiment in a line: Agar incorporation test CG128e (Example 11). As to conditions: 24 hours at 37° C. As to the method: as §1
Assay [8] deals with Propionibacterium acnes (*) ATCC 6919. As to the kind of experiment: Agar incorporation test CG128e (Example 11). As to conditions: 24 hours at 37° C.; organism marked *. On the procedure: as §1
Assay [9] deals with Proteus vulgaris ATCC 6896. The experiment in a line: Agar incorporation test CG128e (Example 11). As to conditions: 24 hours at 37° C. On the procedure: as §1
Assay [10] concerns Pseudomonas aeruginosa ATCC 15442. The experiment in a line: Agar incorporation test CG128e (Example 11). The conditions noted are these: 24 hours at 37° C. As to the method: as §1
Assay [11] concerns Salmonella choleraesuis ATCC 9184. As to the kind of experiment: Agar incorporation test CG128e (Example 11). As to conditions: 24 hours at 37° C. On the procedure: as §1
For assay [12], the system named is Staphylococcus aureus ATCC 6538. As to the kind of experiment: Agar incorporation test CG128e (Example 11). The conditions noted are these: 24 hours at 37° C. On the procedure:
as §1

Assay [13] relates to Staphylococcus aureus ATCC 9144. The experiment in a line: Agar incorporation test CG128e (Example 11). The conditions noted are these: 24 hours at 37° C. As to the method:
as §1

Assay [14] relates to Staphylococcus epidermidis ATCC 12228. As to the kind of experiment: Agar incorporation test CG128e (Example 11). The conditions noted are these: 24 hours at 37° C. On the procedure:
as §1

For assay [15], the system named is Actynomyces viscosus ATCC 43146. The experiment in a line: "Microbicidal Activity" suspension test CG 161/EN1040 (Example 12). The conditions noted are these: A. viscosus. As to the method: (§2) Bacteria are incubated overnight in CASO broth and adjusted to an organism count of 1-5×10^5 CFU/ml using 0.85% sodium chloride solution. The test substances are pre-pipetted into microtitre plates in amounts of 8 μl per well. The adjusted test organism suspensions are added in amounts of 192 μl per well to the test substances and mixed. After defined contact times, the test batches are mixed, an aliquot is withdrawn and diluted in several steps in a dilution series of 1:10 in a suitable inactivation medium. The test plates are incubated for 24 hours at 37° C. After incubation, the growth is determined on the basis of the turbidity of the test batches (optical density) at 620 nm in a microplate reader. […] One microtitre plate is used for each test organism. All the substances are tested in duplicate.

Assay [16] relates to Escherichia coli ATCC 10536. The description is as above. As to conditions: E. coli. On the procedure:
as §2

The test system of assay [17] is Staphylococcus aureus ATCC 6538. The description is as above. As to conditions: S. aureus. On the procedure:
as §2

Assay [18] relates to Candida albicans ATCC 10231 (=CA). As to the kind of experiment: MIC in microtitre plates (Example 10). On the set-up: unit not given here. As to conditions: microtitre plate, 48 hours at 37° C., ≦20% growth. A digest of the protocol: (§3)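 DMSO-dissolved compounds tested in 1:2 serial dilution against overnight CASO broth cultures, inoculum adjusted to 1-5×10^6 CFU/ml then diluted 1:100 in CASO. Incubated 48 hours at 37° C; turbidity read at 620 nm. MIC = lowest concentration giving ≦20% growth versus control; duplicates.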

Assay [19] concerns Escherichia coli NCTC 8196 (=EC). As to the kind of experiment: MIC in microtitre plates (Example 10). Also on record: unit not given here. As to conditions: microtitre plate, 48 hours at 37° C., ≦20% growth. Summed up: as §3
Assay [20] concerns Pseudomonas aeruginosa CIP A-22 (=PA). The experiment in a line: MIC in microtitre plates (Example 10). Also on record: unit not given here. The conditions noted are these: microtitre plate, 48 hours at 37° C., ≦20% growth. A digest of the protocol: as §3
Assay [21] relates to Staphylococcus aureus ATCC 9144 (=SA). The experiment in a line: MIC in microtitre plates (Example 10). On the set-up: unit not given here. The conditions noted are these: microtitre plate, 48 hours at 37° C., ≦20% growth. A digest of the protocol:
as §3

The mark [22] stands for this setting: contact time 5 min, test substance 0.12%.
Setting [23] is: contact time 5 min, test substance 120 ppm.
Where [24] appears, read: contact time 30 min, test substance 0.12%.
[25] abbreviates: contact time 30 min, test substance 120 ppm.

Marks after values point to notes of the source that are not given here. Where only a bound is given, the exact number is not on record here.

As for `CCCCCCCCCCCCNc1cc(C)nc(-c2cccnc2)n1` [Compound of formula 36], the “MIC (agar incorporation) Aspergillus niger ATCC 6275” value in assay [1] is on record as greater than 120. Also, the “MIC (agar incorporation) C. minutissimum ATCC 23348” value in assay [2] is on record as 30. For the same compound, the “MIC (agar incorporation) Candida albicans ATCC 10231” value in assay [3] is greater than 120. The “MIC (agar incorporation) Corynebacterium xerosis* ATCC 373” value in assay [4] stood at 60. In addition, the “MIC (agar incorporation) Escherichia coli ATCC 10536” value in [5] is listed as greater than 120. The “MIC (agar incorporation) Escherichia coli NCTC 8196” value in assay [6] was determined as 120. Further, the “MIC (agar incorporation) Klebsiella pneumoniae ATCC 4352” value in [7] is listed as 60**. For the same compound, the “MIC (agar incorporation) Propionibacterium acnes (*) ATCC 6919” value (“MIC … (*) ATCC 6919” for short) in assay [8] was found to be 60. Moreover, the “MIC (agar incorporation) Proteus vulgaris ATCC 6896” value in assay [9] is recorded as greater than 120. The “MIC (agar incorporation) Pseudomonas aeruginosa ATCC 15442” value in assay [10] is listed as greater than 120. The “MIC (agar incorporation) Salmonella choleraesuis ATCC 9184” value in [11] was greater than 120. Moreover, the “MIC (agar incorporation) Staphylococcus aureus ATCC 6538” value in [12] is recorded as 120. Besides, the “MIC (agar incorporation) Staphylococcus aureus ATCC 9144” value in assay [13] was found to be 120. Also, in [14], the “MIC (agar incorporation) Staphylococcus epidermidis ATCC 12228” value is listed as greater than 120.
As to `CCCCCCCCCCCCNc1cc(C)nc(C)n1` [Compound of formula 89], in assay [1], the “MIC (agar incorporation) Aspergillus niger ATCC 6275” value is listed as greater than 120. Further, the “MIC (agar incorporation) C. minutissimum ATCC 23348” value in assay [2] stood at 3.75. Besides, in assay [3], the “MIC (agar incorporation) Candida albicans ATCC 10231” value is on record as greater than 120. Also, in [4], the “MIC (agar incorporation) Corynebacterium xerosis* ATCC 373” value is recorded as 3.75. In addition, in assay [5], the “MIC (agar incorporation) Escherichia coli ATCC 10536” value was greater than 120. Also, the “MIC (agar incorporation) Escherichia coli NCTC 8196” value in [6] was 120. For the same compound, the “MIC (agar incorporation) Klebsiella pneumoniae ATCC 4352” value in [7] is given as greater than 120. In addition, the “MIC … (*) ATCC 6919” value in assay [8] is listed as 3.75. Further, the “MIC (agar incorporation) Proteus vulgaris ATCC 6896” value in assay [9] came to 60. Besides, in assay [10], the “MIC (agar incorporation) Pseudomonas aeruginosa ATCC 15442” value is recorded as greater than 120. The “MIC (agar incorporation) Salmonella choleraesuis ATCC 9184” value in assay [11] is reported as greater than 120. The “MIC (agar incorporation) Staphylococcus aureus ATCC 6538” value in [12] was determined as 7.5. In addition, the “MIC (agar incorporation) Staphylococcus aureus ATCC 9144” value in [13] came out at 7.5. In assay [14], the “MIC (agar incorporation) Staphylococcus epidermidis ATCC 12228” value was determined as 120. Moreover, the log reduction in assay [15] (setting [22]) was 4.9 log; in assay [15] (setting [23]), 3.9 log; in [15] (setting [24]), greater than 5 log; in [15] (setting [25]), 4.3 log; in [16] (setting [23]), 4.6 log; in [16] (setting [25]), greater than 5 log. Moreover, the log reduction in assay [17] (setting [23]) is listed as less than 1 log; in assay [17] (setting [25]), 1.7 log.
For the compound `CCCCCCCCCCCCNc1cc(C)nc(C(C)C)n1` [Compound of formula 93, 4-dodecylamino-2-isopropyl-6-methylpyrimidine], in assay [1], the “MIC (agar incorporation) Aspergillus niger ATCC 6275” value is on record as greater than 120. The “MIC (agar incorporation) C. minutissimum ATCC 23348” value in [2] is 1.88. Moreover, the “MIC (agar incorporation) Candida albicans ATCC 10231” value in [3] is greater than 120. Besides, the “MIC (agar incorporation) Corynebacterium xerosis* ATCC 373” value in assay [4] is recorded as 1.88*. In addition, the “MIC (agar incorporation) Escherichia coli ATCC 10536” value in [5] came out at 120. For the same compound, the “MIC (agar incorporation) Escherichia coli NCTC 8196” value in assay [6] was found to be 120. Also, the “MIC (agar incorporation) Klebsiella pneumoniae ATCC 4352” value in assay [7] was found to be 60. In addition, the “MIC … (*) ATCC 6919” value in assay [8] was 3.75 (*). Further, the “MIC (agar incorporation) Proteus vulgaris ATCC 6896” value in [9] is greater than 120. Moreover, the “MIC (agar incorporation) Pseudomonas aeruginosa ATCC 15442” value in [10] is greater than 120. Also, the “MIC (agar incorporation) Salmonella choleraesuis ATCC 9184” value in [11] is recorded as 120. For the same compound, in assay [12], the “MIC (agar incorporation) Staphylococcus aureus ATCC 6538” value is 3.75. The “MIC (agar incorporation) Staphylococcus aureus ATCC 9144” value in assay [13] is given as 3.75. Besides, in assay [14], the “MIC (agar incorporation) Staphylococcus epidermidis ATCC 12228” value amounted to 3.75. The log reduction in assay [15] (setting [22]) is greater than 5 log; in [15] (setting [23]), 2 log; in [15] (setting [24]), greater than 5 log; in [15] (setting [25]), 4 log; in assay [16] (setting [22]), greater than 5 log; in assay [16] (setting [23]), greater than 5 log. The log reduction in assay [16] (setting [24]) was greater than 5 log; in [16] (setting [25]) it was greater than 5 log; in [17] (setting [22]), greater than 5 log; in assay [17] (setting [23]), 1.4 log; in [17] (setting [24]) it was greater than 5 log; in [17] (setting [25]), 3.8 log.
`Cc1cc(NC(C)CC(C)C)nc(C(C)C)n1` (centres unmarked) [compound 146]: the “MIC CA” value in assay [18] was 120. For the same compound, the “MIC EC” value in assay [19] is recorded as greater than 120. Also, in assay [20], the “MIC PA” value is given as greater than 120. For the same compound, the “MIC SA” value in [21] is on record as greater than 120.
`Cc1cc(NC(C)CC(C)C)nc(-c2csc(C)n2)n1` (centres unmarked) [compound 147]: in [18], the “MIC CA” value worked out at 120. For the same compound, the “MIC EC” value in assay [19] was greater than 120. In addition, in assay [20], the “MIC PA” value is greater than 120. Besides, the “MIC SA” value in assay [21] was 60.
Turning to `Cc1cc(NC(C)CC(C)C)nc(-c2ccc(C)c(F)c2)n1` (centres unmarked) [compound 148], in [18], the “MIC CA” value is on record as greater than 120. Also, the “MIC EC” value in assay [19] is reported as greater than 120. For the same compound, the “MIC PA” value in assay [20] is reported as greater than 120. Further, in [21], the “MIC SA” value came out at 120.
